Results published in patent US20140357713A1, “ANTIMICROBIAL COMPOUNDS AND METHODS OF USE” (NexMed Holdings, Inc., priority 2012, published 2014).

How the values were obtained:
Experiment in all cases: Extended time kill study, Example 34 (0 to 24 h)
Format in all cases: cell-based
[1] = system: Aspergillus niger
Protocol: (§1) Time kill studies. Strain suspensions were prepared as described above for the MIC test, and strain suspensions and compound solutions were mixed in the same volume. Samples were removed at specified times including 0 min, 30 sec, 1 min and 5 mins, were diluted in the test medium and streaked on agar. Colonies were counted after 24 to 48 hrs of incubation.
(§2) The time kill studies of Example 33 were extended for five compounds (Nex-59, Nex-60, Nex-61, Nex-62, and Nex-88) using the same methods at longer time periods and at higher multiples of MIC. Nex-88 is a code number for DDAIP.HCl from a different supplier.

[2] = system: Candida albicans
Protocol: as §1, §2

[3] = system: Escherichia coli
Protocol: as §1, §2

[4] = system: Pseudomonas aeruginosa
Protocol: as §1, §2

[5] = system: Staphylococcus aureus
Protocol: as §1, §2

Structure (SMILES): CCCCCCCCCCCCOC(=O)C(C)NC(C)C.Cl (stereo not drawn) [Nex-60, Dodecyl 2-(isopropylamino)propanoate hydrochloride]
- Viable counts in Log10 CFU/mL ([1]; 1 × MIC, 1 h): 4.60 Log10 CFU/mL
- Viable counts in Log10 CFU/mL ([1]; 1 × MIC, 2 h): 4.78 Log10 CFU/mL
- Viable counts in Log10 CFU/mL ([1]; 1 × MIC, 4 h): 4.60 Log10 CFU/mL
- Viable counts in Log10 CFU/mL ([1]; 1 × MIC, 6 h): 4.30 Log10 CFU/mL
- Viable counts in Log10 CFU/mL ([1]; 1 × MIC, 24 h): 3.81 Log10 CFU/mL
- Viable counts in Log10 CFU/mL ([1]; 1 × MIC, 0 h): 5.52 Log10 CFU/mL
- Viable counts in Log10 CFU/mL ([1]; 2 × MIC, 1 h): 4.30 Log10 CFU/mL
- Viable counts in Log10 CFU/mL ([1]; 2 × MIC, 2 h): 4.78 Log10 CFU/mL
- Viable counts in Log10 CFU/mL ([1]; 2 × MIC, 4 h): 3.85 Log10 CFU/mL
- Viable counts in Log10 CFU/mL ([1]; 2 × MIC, 6 h): 3.78 Log10 CFU/mL
- Viable counts in Log10 CFU/mL ([1]; 2 × MIC, 24 h): 4.30 Log10 CFU/mL
- Viable counts in Log10 CFU/mL ([1]; 2 × MIC, 0 h): 5.47 Log10 CFU/mL
- Viable counts in Log10 CFU/mL ([1]; 4 × MIC, 1 h): 4.00 Log10 CFU/mL
- Viable counts in Log10 CFU/mL ([1]; 4 × MIC, 2 h): 4.48 Log10 CFU/mL
- Viable counts in Log10 CFU/mL ([1]; 4 × MIC, 4 h): 3.60 Log10 CFU/mL
- Viable counts in Log10 CFU/mL ([1]; 4 × MIC, 6 h): 3 Log10 CFU/mL
- Viable counts in Log10 CFU/mL ([1]; 4 × MIC, 24 h): <2 Log10 CFU/mL
- Viable counts in Log10 CFU/mL ([1]; 4 × MIC, 0 h): 5.60 Log10 CFU/mL
- Viable counts in Log10 CFU/mL ([2]; 1 × MIC, 1 h): 5.51 Log10 CFU/mL
- Viable counts in Log10 CFU/mL ([2]; 1 × MIC, 2 h): 5.50 Log10 CFU/mL
- Viable counts in Log10 CFU/mL ([2]; 1 × MIC, 4 h): 5.18 Log10 CFU/mL
- Viable counts in Log10 CFU/mL ([2]; 1 × MIC, 6 h): 5.09 Log10 CFU/mL
- Viable counts in Log10 CFU/mL ([2]; 1 × MIC, 24 h): >6 Log10 CFU/mL
- Viable counts in Log10 CFU/mL ([2]; 1 × MIC, 0 h): 5.56 Log10 CFU/mL
- Viable counts in Log10 CFU/mL ([2]; 2 × MIC, 1 h): 3.30 Log10 CFU/mL
- Viable counts in Log10 CFU/mL ([2]; 2 × MIC, 2 h): 3.00 Log10 CFU/mL
- Viable counts in Log10 CFU/mL ([2]; 2 × MIC, 4 h): 3.00 Log10 CFU/mL
- Viable counts in Log10 CFU/mL ([2]; 2 × MIC, 6 h): <2.70 Log10 CFU/mL
- Viable counts in Log10 CFU/mL ([2]; 2 × MIC, 24 h): <1 Log10 CFU/mL
- Viable counts in Log10 CFU/mL ([2]; 2 × MIC, 0 h): 5.51 Log10 CFU/mL
- Viable counts in Log10 CFU/mL ([2]; 4 × MIC, 1 h): 3.78 Log10 CFU/mL
- Viable counts in Log10 CFU/mL ([2]; 4 × MIC, 2 h): 3.30 Log10 CFU/mL
- Viable counts in Log10 CFU/mL ([2]; 4 × MIC, 4 h): 3.00 Log10 CFU/mL
- Viable counts in Log10 CFU/mL ([2]; 4 × MIC, 6 h): <2.70 Log10 CFU/mL
- Viable counts in Log10 CFU/mL ([2]; 4 × MIC, 24 h): <1 Log10 CFU/mL
- Viable counts in Log10 CFU/mL ([2]; 4 × MIC, 0 h): 5.62 Log10 CFU/mL
- Viable counts, Escherichia coli time kill study ([3]; 1 × MIC, 1 h): <1 Log10 CFU/mL
- Viable counts, Escherichia coli time kill study ([3]; 1 × MIC, 2 h): <1 Log10 CFU/mL
- Viable counts, Escherichia coli time kill study ([3]; 1 × MIC, 4 h): <1 Log10 CFU/mL
- Viable counts, Escherichia coli time kill study ([3]; 1 × MIC, 6 h): <1 Log10 CFU/mL
- Viable counts, Escherichia coli time kill study ([3]; 1 × MIC, 24 h): <1 Log10 CFU/mL
- Viable counts, Escherichia coli time kill study ([3]; 1×MIC, time 0): 5.02 Log10 CFU/mL
- Viable counts, Escherichia coli time kill study ([3]; 2 × MIC, 1 h): <1 Log10 CFU/mL
- Viable counts, Escherichia coli time kill study ([3]; 2 × MIC, 2 h): <1 Log10 CFU/mL
- Viable counts, Escherichia coli time kill study ([3]; 2 × MIC, 4 h): <1 Log10 CFU/mL
- Viable counts, Escherichia coli time kill study ([3]; 2 × MIC, 6 h): <1 Log10 CFU/mL
- Viable counts, Escherichia coli time kill study ([3]; 2 × MIC, 24 h): <1 Log10 CFU/mL
- Viable counts, Escherichia coli time kill study ([3]; 2 × MIC, time 0): 5.14 Log10 CFU/mL
- Viable counts, Escherichia coli time kill study ([3]; 4 × MIC, 1 h): <1 Log10 CFU/mL
- Viable counts, Escherichia coli time kill study ([3]; 4 × MIC, 2 h): <1 Log10 CFU/mL
- Viable counts, Escherichia coli time kill study ([3]; 4 × MIC, 4 h): <1 Log10 CFU/mL
- Viable counts, Escherichia coli time kill study ([3]; 4 × MIC, 6 h): <1 Log10 CFU/mL
- Viable counts, Escherichia coli time kill study ([3]; 4 × MIC, 24 h): <1 Log10 CFU/mL
- Viable counts, Escherichia coli time kill study ([3]; 4 × MIC, time 0): 5.07 Log10 CFU/mL
- Viable counts, Pseudomonas aeruginosa time kill study ([4]; 1 × MIC, 1 h): <1 Log10 CFU/mL
- Viable counts, Pseudomonas aeruginosa time kill study ([4]; 1 × MIC, 2 h): <1 Log10 CFU/mL
- Viable counts, Pseudomonas aeruginosa time kill study ([4]; 1 × MIC, 4 h): <1 Log10 CFU/mL
- Viable counts, Pseudomonas aeruginosa time kill study ([4]; 1 × MIC, 6 h): <1 Log10 CFU/mL
- Viable counts, Pseudomonas aeruginosa time kill study ([4]; 1 × MIC, 24 h): <1 Log10 CFU/mL
- Viable counts, Pseudomonas aeruginosa time kill study ([4]; 1×MIC, time 0): 5.30 Log10 CFU/mL
- Viable counts, Pseudomonas aeruginosa time kill study ([4]; 2 × MIC, 1 h): <1 Log10 CFU/mL
- Viable counts, Pseudomonas aeruginosa time kill study ([4]; 2 × MIC, 2 h): <1 Log10 CFU/mL
- Viable counts, Pseudomonas aeruginosa time kill study ([4]; 2 × MIC, 4 h): <1 Log10 CFU/mL
- Viable counts, Pseudomonas aeruginosa time kill study ([4]; 2 × MIC, 6 h): <1 Log10 CFU/mL
- Viable counts, Pseudomonas aeruginosa time kill study ([4]; 2 × MIC, 24 h): <1 Log10 CFU/mL
- Viable counts, Pseudomonas aeruginosa time kill study ([4]; 2 × MIC, time 0): 5.28 Log10 CFU/mL
- Viable counts, Pseudomonas aeruginosa time kill study ([4]; 4 × MIC, 1 h): <1 Log10 CFU/mL
- Viable counts, Pseudomonas aeruginosa time kill study ([4]; 4 × MIC, 2 h): <1 Log10 CFU/mL
- Viable counts, Pseudomonas aeruginosa time kill study ([4]; 4 × MIC, 4 h): <1 Log10 CFU/mL
- Viable counts, Pseudomonas aeruginosa time kill study ([4]; 4 × MIC, 6 h): <1 Log10 CFU/mL
- Viable counts, Pseudomonas aeruginosa time kill study ([4]; 4 × MIC, 24 h): <1 Log10 CFU/mL
- Viable counts, Pseudomonas aeruginosa time kill study ([4]; 4 × MIC, time 0): 5.31 Log10 CFU/mL
- Viable counts, Staphylococcus aureus time kill study ([5]; 1 × MIC, 1 h): 6.23 Log10 CFU/mL
- Viable counts, Staphylococcus aureus time kill study ([5]; 1 × MIC, 2 h): 6.24 Log10 CFU/mL
- Viable counts, Staphylococcus aureus time kill study ([5]; 1 × MIC, 4 h): 6.16 Log10 CFU/mL
- Viable counts, Staphylococcus aureus time kill study ([5]; 1 × MIC, 6 h): 5.97 Log10 CFU/mL
- Viable counts, Staphylococcus aureus time kill study ([5]; 1 × MIC, 24 h): 6.57 Log10 CFU/mL
- Viable counts, Staphylococcus aureus time kill study ([5]; 1×MIC, time 0): 6.22 Log10 CFU/mL
- Viable counts, Staphylococcus aureus time kill study ([5]; 2 × MIC, 1 h): <3 Log10 CFU/mL
- Viable counts, Staphylococcus aureus time kill study ([5]; 2 × MIC, 2 h): <3 Log10 CFU/mL
- Viable counts, Staphylococcus aureus time kill study ([5]; 2 × MIC, 4 h): <3 Log10 CFU/mL
- Viable counts, Staphylococcus aureus time kill study ([5]; 2 × MIC, 6 h): <3 Log10 CFU/mL
- Viable counts, Staphylococcus aureus time kill study ([5]; 2 × MIC, 24 h): <1 Log10 CFU/mL
- Viable counts, Staphylococcus aureus time kill study ([5]; 2 × MIC, time 0): 6.20 Log10 CFU/mL
- Viable counts, Staphylococcus aureus time kill study ([5]; 4 × MIC, 1 h): <3 Log10 CFU/mL
- Viable counts, Staphylococcus aureus time kill study ([5]; 4 × MIC, 2 h): <3 Log10 CFU/mL
- Viable counts, Staphylococcus aureus time kill study ([5]; 4 × MIC, 4 h): <3 Log10 CFU/mL
- Viable counts, Staphylococcus aureus time kill study ([5]; 4 × MIC, 6 h): <3 Log10 CFU/mL
- Viable counts, Staphylococcus aureus time kill study ([5]; 4 × MIC, 24 h): <1 Log10 CFU/mL
- Viable counts, Staphylococcus aureus time kill study ([5]; 4 × MIC, time 0): 6.21 Log10 CFU/mL
